Reference: patent US5712139A, “Pyranose oxidase, pyranose oxidase gene, novel recombinant DNA and process for producing pyranose oxidase” (Kikkoman Corporation, priority 1994, dated 1998)

Target: T1, pyranose oxidase (Trametes versicolor, UniProt P79076)
T1 construct: purified, about 290 kDa by gel filtration; mature N-terminus […] in fungal enzyme; pPRME18 is the alternative N-terminally shortened construct
Test: Substrate specificity of pyranose oxidase (hydrogen peroxide / 4-aminoantipyrine-phenol-peroxidase colour reaction)
Type: biochemical, Coriolus versicolor
Conditions: pH 7
Experimental: 3.0 ml of an enzyme-containing solution consisting of 1.0 ml of 0.1M Tris-HC1 buffer, pH 7.0, 0.2 ml of a color-producing solution (prepared by adding 2000 U peroxidase to 100 ml of 0.1 M Tris-HCl buffer, pH 7.0 containing 10 mM 4-aminoantipyrine and 10 mM phenol), 0.1 ml of 1M glucose, 0.1 ml pyranose oxidase solution and 1.6 ml water was allowed to react at 37° C., and the increase in absorbance at 500 nm was determined with U2000 double beam spectrophotometer (manufactured by Hitachi, Ltd.).
One unit of enzyme activity is defined as the amount of enzyme which causes formation of 1 μmol of hydrogen peroxide per minute at 37° C., pH 7.0. The calculation of […] was carried out using the following equation assuming that the molecular extinction coefficient of the quinoimine pigment formed under the above conditions is 5.3 x 10^3 : Enzyme activity: (ΔA500 /5.3)×(3.0/0.1)×dilution degree of enzyme.
For examination of the substrate specificity of the present enzyme, each of sugar solutions (0.1 M) shown in Table 1 was used in place of glucose in the method described in (1) above. 2.5 units of pyranose oxidase were added to the reaction solution. The activity for each substrate is shown in relative activity that is expressed relative to that (100%) for the substrate glucose.

Going from galactose to mannose, the “relative activity (%)” value falls from 3.2% to 0.2%.

Same assay, conditions: pH 7, read-out: relative activity (%)

Work on `O=C(CO)[C@@H](O)[C@H](O)[C@@H](O)CO` [L-sorbose] yielded an activity at 3300 µM of 9%.

Same assay, conditions: substrate 3.3 mM; relative to glucose = 100%; 2.5 units of pyranose oxidase; 37° C., pH 7.0

Compared with `O=C(O)[C@H](O)[C@@H](O)[C@H](O)[C@H](O)CO` [gluconic acid], `OC[C@H]1O[C@H](O[C@H]2O[C@H](CO)[C@@H](O)[C@H](O)[C@H]2O)[C@H](O)[C@@H](O)[C@@H]1O` [trehalose] is lower in “relative activity (%)” value: 0.4% for the first, 0.1% for the second.

`OC[C@H]1O[C@H](O[C@H]2[C@H](O)[C@@H](O)[C@H](O)O[C@@H]2CO)[C@H](O)[C@@H](O)[C@@H]1O` [maltose] was tested, and the “relative activity (%)” value was 1.1%.

Same assay, conditions: substrate 3.3 mM; relative to glucose = 100%; 2.5 units of pyranose oxidase; 37° C., pH 7.0; read-out: relative activity (%)

Going from `O=C1O[C@H](CO)[C@@H](O)[C@H](O)[C@H]1O` [D-gluconic acidδ lactone] to `OC[C@H]1OC[C@H](O)[C@@H](O)[C@@H]1O` [1,5-anhydro-D-glucitol], the activity at 3300 µM rises from 0.4% to 14.2%.

Going from `CC(=O)N[C@H]1C(O)O[C@H](CO)[C@@H](O)[C@@H]1O` (stereo partly drawn) [N-acetyl-D-glucosamine] to `OC[C@H]1OC(O)C[C@@H](O)[C@@H]1O` (stereo partly drawn) [2-deoxy-D-glycose], the activity at 3300 µM rises from 0% to 1.6%.

`OC[C@@H](O)[C@@H](O)[C@H](O)[C@@H](O)CO` [D-sorbitol] and `OC[C@@H](O)[C@H](O)[C@@H](O)CO` [xylitol] are the same in activity at 3300 µM: 0% for the first, 0% for the second.

Going from `C[C@@H]1OC(O)[C@H](O)[C@H](O)[C@H]1O` (stereo partly drawn) [L-rhamnose] to `OC1OC[C@@H](O)[C@H](O)[C@H]1O` (stereo partly drawn) [D-xylose], the activity at 3300 µM rises from 0.1% to 6.5%.

`OC[C@H]1O[C@@](CO)(O[C@H]2O[C@H](CO)[C@@H](O)[C@H](O)[C@H]2O)[C@@H](O)[C@@H]1O` [sucrose] and `OC[C@H]1O[C@H](OC[C@H]2O[C@H](O[C@]3(CO)O[C@H](CO)[C@@H](O)[C@@H]3O)[C@H](O)[C@@H](O)[C@@H]2O)[C@H](O)[C@@H](O)[C@H]1O` [raffinose] are the same in activity at 3300 µM: 0% for the first, 0% for the second.

Same assay, conditions: summary of Table 1

With galactose the “substrate specificity in words” value was “acts on”.
`OC1OC[C@@H](O)[C@H](O)[C@H]1O` (stereo partly drawn) [D-xylose] was tested, and the “substrate specificity in words” value was “acts on”.
With `OC[C@H]1OC[C@H](O)[C@@H](O)[C@@H]1O` [1,5-anhydro-D-glucitol] the “substrate specificity in words” value was “acts on”.
